# Source: publication PMC5244364 (2017)
# Assays:
# [1] = system: KRAS (DNA, G4) GGGAGGGAGGGAAGGAGGGAGGGAGGGA; test: fluorescence anisotropy of compound; details: 100 mM KCl, K+ phosphate; 10 mM potassium phosphate pH 7.0; 10 µM compound titrated with DNA
# [2] = system: KRAS (DNA, G4) GGGAGGGAGGGAAGGAGGGAGGGAGGGA; test: CD melting; details: 100 mM KCl, K+ phosphate; 10 mM potassium phosphate pH 7.0; 1:2 DNA:compound (10 µM DNA in CD titration); Tm free 67.5
# [3] = system: VEGFA (DNA, G4) GGGGGCGGGCCGGGGGCGGGGTCCCGGCGGGGCGGAG; test: ITC; details: 100 mM KCl, K+ phosphate; 10 mM potassium phosphate pH 7.0, 25 °C; 100 µM DNA injected into 10 µM compound; one set of sites
# [4] = system: GC rich duplex DNA (DNA, duplex) AGGGTGGGGAGGGT/ACCCTCCCCACCCT; test: fluorescence anisotropy of compound; details: 100 mM KCl, K+ phosphate; 10 mM potassium phosphate pH 7.0; 10 µM compound, 0–20 µM duplex
# [5] = system: GC rich duplex DNA (DNA, duplex) AGGGTGGGGAGGGT/ACCCTCCCCACCCT; test: UV absorption titration; details: 100 mM KCl, K+ phosphate; 10 mM potassium phosphate pH 7.0; 10 µM compound, 0–20 µM duplex; quadruplex affinity 4–16 fold higher
# [6] = system: GC rich duplex DNA (DNA, duplex) AGGGTGGGGAGGGT/ACCCTCCCCACCCT; test: ITC; details: 100 mM KCl, K+ phosphate; 10 mM potassium phosphate pH 7.0, 25 °C; 100 µM duplex injected into 10 µM compound
# [7] = system: BCL2 (DNA, G4) CGGGCGCGGGAGGAATTGGGCGGGAGC; test: CD melting; details: 100 mM KCl, K+ phosphate; 10 mM potassium phosphate pH 7.0; 1:2 DNA:compound (10 µM DNA in CD titration); Tm free 57.1
# [8] = system: VEGFA (DNA, G4) GGGGGCGGGCCGGGGGCGGGGTCCCGGCGGGGCGGAG; test: fluorescence anisotropy of compound; details: 100 mM KCl, K+ phosphate; 10 mM potassium phosphate pH 7.0; 10 µM compound titrated with DNA
# [9] = system: BCL2 (DNA, G4) CGGGCGCGGGAGGAATTGGGCGGGAGC; test: fluorescence anisotropy of compound; details: 100 mM KCl, K+ phosphate; 10 mM potassium phosphate pH 7.0; 10 µM compound titrated with DNA
# [10] = system: VEGFA (DNA, G4) GGGGGCGGGCCGGGGGCGGGGTCCCGGCGGGGCGGAG; test: UV absorption titration (316 nm); details: 100 mM KCl, K+ phosphate; 10 mM potassium phosphate pH 7.0; 10 µM compound titrated with 0–20 µM DNA; one-site fit
# [11] = system: BCL2 (DNA, G4) CGGGCGCGGGAGGAATTGGGCGGGAGC; test: ITC; details: 100 mM KCl, K+ phosphate; 10 mM potassium phosphate pH 7.0, 25 °C; 100 µM DNA injected into 10 µM compound; one set of sites
# [12] = system: KRAS (DNA, G4) GGGAGGGAGGGAAGGAGGGAGGGAGGGA; test: ITC; details: 100 mM KCl, K+ phosphate; 10 mM potassium phosphate pH 7.0, 25 °C; 100 µM DNA injected into 10 µM compound; one set of sites
# [13] = system: BCL2 (DNA, G4) CGGGCGCGGGAGGAATTGGGCGGGAGC; test: UV absorption titration (316 nm); details: 100 mM KCl, K+ phosphate; 10 mM potassium phosphate pH 7.0; 10 µM compound titrated with 0–20 µM DNA; one-site fit
# [14] = system: KRAS (DNA, G4) GGGAGGGAGGGAAGGAGGGAGGGAGGGA; test: ethidium bromide displacement, fluorescence; details: 100 mM KCl, K+ phosphate; 10 mM potassium phosphate pH 7.0; 5 µM ethidium bromide displaced, 10 µM DNA
# [15] = system: VEGFA (DNA, G4) GGGGGCGGGCCGGGGGCGGGGTCCCGGCGGGGCGGAG; test: CD melting; details: 100 mM KCl, K+ phosphate; 10 mM potassium phosphate pH 7.0; 1:2 DNA:compound (10 µM DNA in CD titration); Tm free 67.3
# [16] = system: VEGFA (DNA, G4) GGGGGCGGGCCGGGGGCGGGGTCCCGGCGGGGCGGAG; test: ethidium bromide displacement, fluorescence; details: 100 mM KCl, K+ phosphate; 10 mM potassium phosphate pH 7.0; 5 µM ethidium bromide displaced, 10 µM DNA
# [17] = system: BCL2 (DNA, G4) CGGGCGCGGGAGGAATTGGGCGGGAGC; test: ethidium bromide displacement, fluorescence; details: 100 mM KCl, K+ phosphate; 10 mM potassium phosphate pH 7.0; 5 µM ethidium bromide displaced, 10 µM DNA
# [18] = system: KRAS (DNA, G4) GGGAGGGAGGGAAGGAGGGAGGGAGGGA; test: UV absorption titration (316 nm); details: 100 mM KCl, K+ phosphate; 10 mM potassium phosphate pH 7.0; 10 µM compound titrated with 0–20 µM DNA; one-site fit
structure (smiles),measurement,setting,value
COc1ccc2c(c[n+](C)c3c4cc5c(cc4ccc23)OCO5)c1OC,KD,[1],1500 nM
same,∆Tm,[2],4.6 °C
same,KD,[3],980 nM
same,KD,[4],6140 ± 2000 nM
same,KD,[5],8330 ± 400 nM
same,KD,[6],4330 nM
same,∆Tm,[7],16.2 °C
same,KD,[8],250 nM
same,KD,[9],3200 nM
same,KD,[10],510 ± 300 nM
same,KD,[11],600 nM
same,KD,[12],870 nM
same,KD,[13],1920 ± 700 nM
same,binding,[14],yes
same,∆Tm,[15],3.3 °C
same,binding,[16],yes
same,binding,[17],yes
same,KD,[18],720 ± 200 nM
